Source: patent US20220389377A1, “TREATMENT OF MEDICAL CONDITIONS BY STEM CELL TRANSPLANTS AND STEM CELL ACTIVATION” (Vitro Biopharma, Inc., priority 2021, published 2022)
Where two headings read alike, the source gives them in different places.

Columns and labels:
[1] = test system: human MSCs; experiment: cells; conditions: for effect on MSC migration induced by curcumin and quercetin / effect on MSC migration induced by curcumin and resveratrol: 20 μM AMD3100 or 15 μM GM6001; for effect on MSC migration induced by Li-VPA: both AMD 3100 and GM6001 present; for EC50: Homo sapiens
Description: (§1) FIG. 1 is a microphotograph depicting cell migration using fluorescent readout and cell tracker green as a fluorescent marker of human UC-MSCs. […] The EC50 was determined as a measure of effectiveness of activating agents. […] An initial analysis of the cell free zone using Image J software was used to screen concentrations of activating agents for dose-response determination in further experiments.
(§2) The cell migration assays described above were set up as follows: One million cells/cell line were resuspended in 10 mL MSC-Gro™ serum free, quiescent medium (Vitro Biopharma Cat. No. SCO0B17) containing 5 μg/mL mitomycin C (Sigma, Cat. No. M4287) to inhibit proliferation and incubated for 2 hours at room temperature with end-to-end agitation at 7 RPM.
In some experiments, curcumin was used at 1 μM to block proliferation. Cells were centrifuged (450×g) for 7 minutes, washed with PBS and then resuspended in 1 mL MSC-Gro™ low serum, complete medium (Vitro Biopharma Cat. No. SCO0B1) and plated at 25,000 cells/well in black 96 well, TC-coated cell culture plates (ThermoScientific, Cat. No. 165305) containing cell seed-stoppers (Platypus, Cat. No. CMAUFL4) to form a cell free zone at the center of the well and incubated in 5% CO2, 1% O2, 94% N2 at 37° C. in a humidified chamber for 24 hrs. Plates used for culture of NSCs were first treated with 10 μg/mL fibronectin (Sigma, Cat. No. F0556) for 2 hours at 37° C. Following washout with PBS (3×), cell seed stoppers were inserted, NSCs were plated at 25,000/well and incubated in 5% CO2, 1% O2, 94% N2 at 37° C. in a humidified chamber for 48 hrs.
For studies of the effects of CXCR4 and MMP-9 inhibition following 24 hours of cell culture, appropriate wells were dosed with 15 μM GM6001 and 20 μM AMD3100 for 6 hours. Cells were washed once with PBS then incubated in serum free, MSC-Gro™ (Vitro Biopharma Cat. No. SCO0B17) containing 5 μM Cell Tracker Green CIVIFDA (Molecular Probes, Cat. No. C7025) at 37° C. for 30 minutes. The wells were then washed with serum free, MSC-Gro™ (Vitro Biopharma Cat. No. SCO0B17) and incubated for 30 minutes at 37° C. Cells were washed once with PBS and this was replaced with MSC-Gro™ serum free, quiescent medium (Vitro Biopharma Cat. No. SCO0B17) containing different concentrations of activating agents. […] A TopSeal (PerkinElmer, Cat. No. 6050195) covered the plate for live-cell imaging in a BioTek Cytation3 imaging reader. Kinetic data was acquired every 2 hrs for 24 hrs using a GFP filter and bright field data acquisition. The gas phase throughout the acquisition of kinetic data was 5% O2, 5% CO2 with the balance nitrogen maintained by a BioTek CO2/O2 gas controller. Images were saved as TIFF files to calculate percent closure using imaging data.

[2] = test system: human MSCs; experiment: Gene expression analysis by qPCR in human MSCs; assay type: cell-based; conditions: for expression levels of FGF-21, CXCR4 and Hsp70 / expression of Oct 3/4 / expression of SIRT-1: 250 μM VPA, 500 nM curcumin, FIG. 13
Description: Beta actin was measured as a house-keeping gene. […] Gene expression was quantified by determining the amount of gene-specific DNA/total cDNA. Data is mean+/−SD of 4 replicates.
Native human umbilical cord-derived MSCs (Vitro Biopharma Cat. No. SC00A1) were expanded from cryopreservation in T-25 TC-coated flasks (BD Falcon, Cat. No. 353108) in MSC-Gro™ low serum, complete medium (Vitro Biopharma Cat. No. SCO0B1). Cells were sub-cultured and counted on a Beckerman-Coulter Z2 particle counter (range 10 μm-30 μm). Cells were plated at 10,000/cm^2 a TC-coated Greiner Bio-One T75 flask and maintained in MSC-Gro™ serum free, complete medium (Vitro Biopharma Cat. No. SCO0B3) in a reduced O2 environment (1% O2, 5% CO2, 94% N2) at 37° C. in a humidified chamber. The MSCs were treated continuously for up to 2 weeks. Cultures were fed every 3 days. Cells were harvested using Accutase (Innovative Cell Technologies Inc., Cat No AT-104) and centrifuged (450×g) for 7 minutes. Cell supernatant was aspirated off and cells were resuspended in 1 mL PBS and counted on a Beckerman-Coulter Z2 particle counter (range 10 μm-30 μm). Total RNA was extracted using RNeasy mini kit (Qiagen Cat. No. 74104). RNA was quantified using an absorbance measurement at 260 nm. RNA was converted to cDNA using Quantitect reverse transcription kit (Qiagen Cat. No. 205310) in a thermocycler. RNA was incubated in the gDNA elimination reaction for 2 minutes at 42° C. then incubated in the reverse-transcription master mix for 15 minutes at 42° C. Immediately after, it was incubated at 95° C. for 3 minutes for inactivation. cDNA was sent to an outside lab (CU-Anschutz Metabolic Laboratory) for q-PCR to detect relative or absolute gene expression levels. cDNA was diluted 1:5 and an iTaq Universal Supermix fluorescent probe (BioRad Cat. No. 172-5120) used to detect the threshold cycle (Ct) during PCR Dilution factors and cDNA concentrations were calculated into recorded values then normalized to untreated hMSCs (Vitro Biopharma Cat. No. SC00A1).
Gene expression was quantified by determining the amount of gene-specific DNA/total cDNA. Data is mean+/−SD of 4 replicates.
Native human umbilical cord-derived MSCs (Vitro Biopharma Cat. No. SC00A1) were expanded from cryopreservation in T-25 TC-coated flasks (BD Falcon, Cat. No. 353108) in MSC-Gro™ low serum, complete medium (Vitro Biopharma Cat. No. SCO0B1). Cells were sub-cultured and counted on a Beckerman-Coulter Z2 particle counter (range 10 μm-30 μm). Cells were plated at 10,000/cm2 a TC-coated Greiner Bio-One T75 flask and maintained in MSC-Gro™ serum free, complete medium (Vitro Biopharma Cat. No. SCO0B3) in a reduced O2 environment (1% O2, 5% CO2, 94% N2) at 37° C. in a humidified chamber. The MSCs were treated continuously for up to 2 weeks. Cultures were fed every 3 days. Cells were harvested using Accutase (Innovative Cell Technologies Inc., Cat No AT-104) and centrifuged (450×g) for 7 minutes. Cell supernatant was aspirated off and cells were resuspended in 1 mL PBS and counted on a Beckerman-Coulter Z2 particle counter (range 10 μm-30 μm).
Total RNA was extracted using RNeasy Mini Kit (Qiagen Cat. No. 74104). RNA was quantified using an absorbance measurement at 260 nm. RNA was converted to cDNA using Quantitect reverse transcription Kit (Qiagen Cat. No. 205310) in a thermocycler. RNA was incubated in the DNA elimination reaction for 2 minutes at 42° C. then incubated in the reverse-transcription master mix for 15 minutes at 42° C. Immediately after, it was incubated at 95° C. for 3 minutes for inactivation. cDNA was sent to an outside lab (CU-Anschutz Metabolic Laboratory) for q-PCR to detect relative or absolute gene expression levels. cDNA was diluted 1:5 and an iTaq Universal Supermix fluorescent probe (BioRad Cat. No. 172-5120) was used to detect the threshold cycle (Ct) during PCR.

[3] = test system: human fibroblast; conditions: read-out: EC50 of human fibroblast migration induced by Substance P (prior study); suspension culture system; Parenti et al. 1996; cited from earlier work
[4] = test system: NSCs; experiment: Presto Blue proliferation assay, NSCs; assay type: cell-based; conditions: Homo sapiens, 120 h, read-out: EC50 of VPA for NSC proliferation in 200 μM lithium, 5 day exposure, FIG. 10
Description: (§3) Example 5: Effects of lithium and VPA on stem cell proliferation: The effects of lithium and VPA on stem cell proliferation were then investigated using an assay based on Presto Blue, a fluorescent marker of cellular reduction. FIG. 8 is a line graph representation illustrating proliferation of different cell lines induced by increasing concentrations of FGF-b (FGF-2) after a 5 day exposure. Relative fluorescent units were measured using a FITC filter on a Modulus microplate reader and plotted as a function of FGF-2. The data was modeled by sigmoidal curve fitting to calculate EC50 values. […] Proliferation of these mesenchymal cells was stimulated by recombinant human FGF-2 with EC50 values in the range of 3 to 6 ng/ml with maximal proliferative responses at about 10 ng/ml.
The proliferative responses of MSCs and NSCs were compared to Li-VPA. The results are shown in FIG. 10, which is a line graph representation illustrating proliferation of MSCs and NSCs as a function of increasing VPA in 200 μM lithium after a 5 day exposure. Relative fluorescent units were measured using a FITC filter on a Modulus microplate reader and plotted as a function of FGF-2. The data was modeled by sigmoidal curve fitting to calculate EC50 values. […] This may reflect intrinsic proliferative capacity. […]

[5] = test system: MSCs; experiment: Presto Blue proliferation assay, MSCs; assay type: cell-based; conditions: Homo sapiens
Description: as §3
The proliferative effects of lithium and VPA were compared, either alone or in combination to MSC proliferation. The results are shown in FIG. 9, which is a line graph representation illustrating proliferation of MSCs induced by lithium, VPA and VPA in 200 μM lithium after a 5 day exposure. Relative fluorescent units were measured using a FITC filter on a Modulus microplate reader and plotted as a function of FGF-2. The data was modeled by sigmoidal curve fitting to calculate EC50 values.

[6] = test system: human NSCs; experiment: Cell migration assay, human NSCs; assay type: cell-based; conditions: read-out: EC50 of VPA for NSC migration in 200 μM lithium, increasing VPA in 200 μM lithium, FIG. 6
Description: as §1, §2
In some experiments, curcumin was used at 1 μM to block proliferation. […]
For studies of the effects of CXCR4 and MMP-9 inhibition following 24 hours of cell culture, appropriate wells were dosed with 15 μM GM6001 and 20 μM AMD3100 for 6 hours. […] A TopSeal (PerkinElmer, Cat. No. 6050195) covered the plate for live-cell imaging in a BioTek Cytation3 imaging reader. […]

[7] = test system: CAFs, primary fibroblasts and MSCs; experiment: Presto Blue proliferation assay, CAFs, primary fibroblasts and MSCs (FGF-2 validation); assay type: cell-based, human; conditions: 5 day exposure
Description: as §3

[8] = Example 6, 31.25 μM VPA, 200 μM lithium, FIG. 11

c1cc(CN2CCCNCCNCCCNCC2)ccc1CN1CCCNCCNCCCNCC1 [AMD3100]
effect on VPA-induced MSC migration ([1]; 20 μM AMD3100, CXCR4 inhibitor, FIG. 7): blocked
effect on MSC migration induced by curcumin and quercetin ([1]; FIG. 14): blocked MSC migration
effect on MSC migration induced by curcumin and resveratrol ([1]; FIG. 15): blocked MSC migration
effect on MSC migration induced by Li-VPA ([1]; FIG. 7): blocked

CNC(=O)[C@H](Cc1c[nH]c2ccccc12)NC(=O)[C@@H](CC(=O)NO)CC(C)C [GM6001]
effect on lithium-induced MSC migration ([1]; 15 μM GM6001, MMP-9 inhibitor, FIG. 7): blocked
effect on MSC migration induced by curcumin and quercetin ([1]; FIG. 14): blocked MSC migration
effect on MSC migration induced by curcumin and resveratrol ([1]; FIG. 15): blocked MSC migration
effect on MSC migration induced by Li-VPA ([1]; FIG. 7): blocked

CCCC(=O)[O-].[Na+] [Na butyrate]
expression levels of FGF-21, CXCR4 and Hsp70 ([2]; Example 8): lower levels
expression of Oct 3/4 ([2]; Example 8): less expression activation
expression of SIRT-1 ([2]; Example 8): significantly less effective

CSCC[C@H](NC(=O)[C@H](CC(C)C)NC(=O)CNC(=O)[C@H](Cc1ccccc1)NC(=O)[C@H](Cc1ccccc1)NC(=O)[C@H](CCC(N)=O)NC(=O)[C@H](CCC(N)=O)NC(=O)[C@@H]1CCCN1C(=O)[C@H](CCCCN)NC(=O)[C@@H]1CCCN1C(=O)[C@@H](N)CCCNC(=N)N)C(N)=O [Substance P]
MSC migration into cell-free center of the well ([1]; 3.7 nM Substance P, 24 hours): induced MSC migration into the cell-free center of the well
MSC migration (percent closure) dose-response ([1]; Substance P from 0 to 18.5 nM, 24-hour live cell analysis): migration increased in a dose-dependent manner
EC50 [3]: 2.2 nM

CC(/C=C/C(=O)NO)=C\[C@@H](C)C(=O)c1ccc(N(C)C)cc1 [TSA]
expression levels of FGF-21, CXCR4 and Hsp70 ([2]; Example 8): lower levels
expression of Oct 3/4 ([2]; Example 8): less expression activation
expression of SIRT-1 ([2]; Example 8): significantly less effective

CCCC(CCC)C(=O)O [VPA, valproic acid]
EC50 [4]: 36.8 µM
EC50 ([1]; read-out: EC50 of MSC migration, agent alone, percent closure, sigmoidal curve fit, FIG. 5): 38400 nM
EC50 ([1]; read-out: EC50 of VPA for MSC migration in 200 μM lithium, increasing VPA in 200 μM lithium): 33000 nM
concentration of maximal migration / maximum closure ([1]; agent alone, FIG. 5): 100 µM
expression of Oct 3/4 compared to untreated human MSCs [2, 8]: about 20 fold
expression of SIRT-1 compared to untreated MSC [2, 8]: ~300 fold
expression of Oct 3/4 ([2]; Example 8): about 20 fold
expression of SIRT-1 ([2]; Example 8): ~300 fold
EC50 ([5]; 200 μM lithium, MSCs and NSCs, proliferation and migration, read-out: VPA concentration 50% effective in inducing cell proliferation and migration (mean)): 37 µM
EC50 ([5]; 200 μM lithium, MSCs and NSCs, proliferation and migration, read-out: VPA concentration 50% effective in inducing cell proliferation and migration (range)): 35 to 39 µM
EC50 ([5]; 120 h, 5 day exposure, FIG. 9, read-out: EC50 of MSC proliferation, agent alone): 47.7 µM
EC50 ([5]; 120 h, read-out: EC50 of VPA for MSC proliferation in 200 μM lithium, 5 day exposure, 200 μM lithium): 63.3 µM
EC50 [6]: 35.2 µM

COc1cc(/C=C/C(=O)CC(=O)/C=C/c2ccc(O)c(OC)c2)ccc1O [curcumin]
EC50 ([1]; 36 h, read-out: apparent EC50 of curcumin-induced migration, MSCs, percent closure after 36-hour run): 250 nM
concentration at which curcumin induced migration ([1]; human MSCs, 36-hour run): less than 1 μM
estimated LD50 (apparent toxicity, reduced cell number) ([1]; human, 36 h): 3 µM
expression of Oct 3/4, SIRT-1, FGF21, CXCR4 and Hsp70 as compared to VPA ([2]; Example 8, 500 nM curcumin vs 250 μM VPA): equivalent or increased expression
expression of Oct 3/4 ([2]; Example 8): about 20 fold
expression of SIRT-1 ([2]; Example 8): ~300 fold

O=c1c(O)c(-c2ccc(O)c(O)c2)oc2cc(O)cc(O)c12 [quercetin]
EC50 ([1]; read-out: EC50 of quercetin for MSC migration in 500 nM curcumin, 500 nM curcumin, FIG. 14): 317 nM

Oc1ccc(C=Cc2cc(O)cc(O)c2)cc1 [resveratrol]
EC50 ([1]; read-out: EC50 of resveratrol for MSC migration in 500 nM curcumin, 500 nM curcumin, FIG. 15): 253 nM

CCCCC(=O)O [valeric acid]
expression levels of FGF-21, CXCR4 and Hsp70 ([2]; Example 8): lower levels
expression of Oct 3/4 ([2]; Example 8): less expression activation
expression of SIRT-1 ([2]; Example 8): significantly less effective

FGF-2: recombinant human FGF-2, member of the family of fibroblast growth factors
concentration of maximal proliferative responses [7]: about 10 ng/ml
